Assay results taken from US10988474B2, “Compounds acting at multiple prostaglandin receptors giving a general anti-inflammatory response” (ALLERGAN, INC., priority 2011, dated 2021).

Tests used:
Type in all cases: cell-based
[1] = target: T1, human prostanoid FP receptor (Homo sapiens, UniProt P43088); assay: FLIPR Ca2+ signaling PG antagonist assay, FP stable cell line; settings: HEK-293 EBNA cells, human recombinant FP, no exogenous G-protein; standard agonist 17-phenyl-PGF2α
T1 construct: expressed in transfected cells
T1 sequence (P43088 whole entry): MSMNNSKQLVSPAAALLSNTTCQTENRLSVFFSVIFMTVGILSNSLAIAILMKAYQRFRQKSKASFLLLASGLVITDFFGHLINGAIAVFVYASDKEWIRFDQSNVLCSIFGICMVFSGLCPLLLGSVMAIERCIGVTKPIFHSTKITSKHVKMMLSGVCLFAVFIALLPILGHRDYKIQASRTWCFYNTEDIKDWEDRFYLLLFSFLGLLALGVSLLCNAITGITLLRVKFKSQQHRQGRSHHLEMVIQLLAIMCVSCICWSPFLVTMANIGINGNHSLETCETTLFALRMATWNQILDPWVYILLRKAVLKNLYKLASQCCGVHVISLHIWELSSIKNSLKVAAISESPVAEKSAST
Protocol: (§1) The above compounds were tested for PG antagonist activity as follows using human recombinant prostanoid receptor (DP1, EP1-4, FP, IP and TP) stable cell lines: In order to measure the response of Gs and Gi coupled prostanoid receptors as a Ca^2+ signal, chimeric G protein cDNAs were used. Stable cell lines over-expressing human prostanoid DP1, EP1-4, FP, IP, and TP receptors were established as follows:
(§2) Briefly, human prostanoid DP1, EP2, and EP4 receptor cDNAs were co-transfected with chimeric Gqs cDNA containing a haemagglutanin (HA) epitope; human prostanoid EP3 receptors were co-transfected with chimeric Gqi-HA; human EP1, FP, IP, and TP receptor cDNAs were expressed with no exogenous G-proteins. Gqs and Gqi chimeric cDNAs (Molecular Devices, Sunnyvale, Calif., U.S.A.), as well as cDNAs of prostanoid receptors, were cloned into a pCEP4 vector with a hygromycin B selection marker. Transfection into HEK-293 EBNA (Epstein-Barr virus nuclear antigen) cells was achieved by the FuGENE 6 transfection Reagent (Roche Applied Science, Indianapolis, Ind., USA). Stable transfectants were selected according to hygromycin resistance. Because Gqs and Gqi contained an HA epitope, G-protein expression was detected by Western blotting analysis using anti-mouse HA monoclonal antibody and horseradish peroxidase (HRP)-conjugated secondary antibody, while functional expression of prostanoid receptors was detected by FLIPR screening (Matias et al., 2004). These stable cell lines were validated using previously published antagonists at 10 μM against serial dilutions of standard agonists by FLIPR functional assays for Ca^2+ Signaling (as described below).
(§3) Ca^2+ signaling studies were performed using a FLIPR TETRA system (Molecular Devices, Sunnyvale, Calif., USA) in the 384-format. This is a high-throughput instrument for cell-based assays to monitor Ca^2+ signaling associated with GPCRs and ion channels. Cells were seeded at a density of 5×10^4 cells/well in BioCoat poly-D-lysine coated, black wall, clear bottom 384-well plates (BD Biosciences, Franklin lakes, NJ, USA) and allowed to attach overnight in an incubator at 37° C. The cells were then washed twice with HBSS-HEPES buffer (Hanks' balanced salt solution without bicarbonate and phenol red, 20 mM HEPES, pH 7.4) using an ELx405 Select CW Microplate Washer (BioTek, Winooski, Vt., USA). After 60 min of dye-loading in the dark using the Ca^2+-sensitive dye Fluo-4AM (Invitrogen, Carlsbad, Calif., USA), at a final concentration of 2×10^−6M, the plates were washed 4 times with HBSS-HEPES buffer to remove excess dye and leaving 50 μl of buffer in each well. The plates were then placed in the FLIPR TETRA instrument and allowed to equilibrate at 37° C. Compounds were added in a 25 μl volume to each well to give final concentrations of 0.1 μM, 0.3 μM, 1 μM, 3 μM, 10 μM, and 30 μM; or 0.067 μM, 0.1 μM, 0.2 μM, 0.3 μM, 0.67 μM, and 1 μM for cells over-expressing TP receptors. After 4.5 minutes, a 7-point serial dilution of the standard agonist for the corresponding receptor, in a 25 μl volume was injected at the final concentrations from 10^−11M to 10^−5M in 10-fold serial dilution increments for cells expressing human recombinant DP1, EP1, EP2, EP3, EP4, FP, and IP receptors. The dose range for the standard agonist for human recombinant TP receptors was from 10^−12M to 10^−6M. HBSS-HEPES buffer was used as the negative control for the standard agonists. Cells were excited with LED (light emitting diode) excitation at 470-495 nm and emission was measured through an emission filter at 515-575 nm. Assay plates were read for 3.5 minutes using the FLIPR^TETRA. The peak increase in fluorescence intensity was recorded for each well. On each plate, negative controls, dose response of positive controls, and co-treatments of antagonist-agonist for each dose were in triplicates. Standard agonists were as follows: DP=BW 245C, EP1-EP4=PGE2, FP=17-phenyl-PGF2α, IP=Cicaprost, and TP=U-46619. […]

[2] = target: T2, human prostanoid DP1 receptor (Homo sapiens, UniProt Q13258); assay: FLIPR Ca2+ signaling PG antagonist assay, DP1 stable cell line; settings: HEK-293 EBNA cells, human recombinant DP1 with chimeric Gqs; standard agonist BW 245C; read-out: DP (Kb, PG antagonist activity)
T2 construct: expressed in transfected cells
T2 sequence (Q13258 1-359): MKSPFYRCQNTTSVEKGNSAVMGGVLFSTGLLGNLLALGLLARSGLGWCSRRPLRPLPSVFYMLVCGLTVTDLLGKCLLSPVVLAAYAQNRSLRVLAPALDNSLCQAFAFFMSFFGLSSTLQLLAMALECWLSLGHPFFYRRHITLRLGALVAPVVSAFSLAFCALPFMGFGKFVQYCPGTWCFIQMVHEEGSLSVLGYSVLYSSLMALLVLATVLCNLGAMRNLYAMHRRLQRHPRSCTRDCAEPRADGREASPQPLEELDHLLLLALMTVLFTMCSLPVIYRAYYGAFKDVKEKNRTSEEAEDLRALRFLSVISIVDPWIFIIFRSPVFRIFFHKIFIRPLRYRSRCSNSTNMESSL
Protocol: as §1, §2, §3

[3] = target: T3, human prostanoid IP receptor (Homo sapiens, UniProt P43119); assay: FLIPR Ca2+ signaling PG antagonist assay, IP stable cell line; settings: HEK-293 EBNA cells, human recombinant IP, no exogenous G-protein; standard agonist Cicaprost
T3 construct: expressed in transfected cells
T3 sequence (P43119 whole entry): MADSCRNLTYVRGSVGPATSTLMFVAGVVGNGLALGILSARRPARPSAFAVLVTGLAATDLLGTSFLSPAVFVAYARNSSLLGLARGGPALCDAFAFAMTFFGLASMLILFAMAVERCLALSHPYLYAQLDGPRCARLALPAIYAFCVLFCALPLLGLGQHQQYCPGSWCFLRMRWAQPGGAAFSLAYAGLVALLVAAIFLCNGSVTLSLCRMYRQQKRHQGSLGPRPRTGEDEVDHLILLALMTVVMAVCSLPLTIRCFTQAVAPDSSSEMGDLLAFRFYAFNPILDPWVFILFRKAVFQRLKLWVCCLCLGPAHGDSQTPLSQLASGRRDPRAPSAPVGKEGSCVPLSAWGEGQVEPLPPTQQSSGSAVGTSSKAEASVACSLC
Protocol: as §1, §2, §3

[4] = target: T4, human prostanoid TP receptor (Homo sapiens, UniProt P21731); assay: FLIPR Ca2+ signaling PG antagonist assay, TP stable cell line; settings: HEK-293 EBNA cells, human recombinant TP, no exogenous G-protein; standard agonist U-46619
T4 construct: expressed in transfected cells
T4 sequence (P21731 1-343): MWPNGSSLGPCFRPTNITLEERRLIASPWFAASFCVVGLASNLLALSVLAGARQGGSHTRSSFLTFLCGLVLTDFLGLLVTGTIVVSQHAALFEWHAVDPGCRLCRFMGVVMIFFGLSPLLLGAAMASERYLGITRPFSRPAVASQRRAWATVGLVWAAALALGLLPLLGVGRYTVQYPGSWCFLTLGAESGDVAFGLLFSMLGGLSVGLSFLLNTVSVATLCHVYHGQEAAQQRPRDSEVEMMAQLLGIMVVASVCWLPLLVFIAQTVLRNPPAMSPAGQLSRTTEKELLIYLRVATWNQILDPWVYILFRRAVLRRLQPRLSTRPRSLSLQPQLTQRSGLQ
Protocol: as §1, §2, §3

Q: Which results are given for CC(C)COc1ccc(Br)cc1Cn1cc2ccc(C(=O)O)cc2n1 [Example 43, 2-(5-Bromo-2-Isobutoxy-Benzyl)-2H-Indazole-6-Carboxylic Acid]?
A: Kb [1]: 2200 nM; Kb [2]: 2000 nM; Kb [3]: 4900 nM; Kb [4]: 110 nM

Q: Which Kb [3] does the source give for “1-(5-Bromo-2-Isobutoxy-Benzyl)-1H-Pyrrolo[2,3-B]Pyridine-5-Carboxylic Acid [Example 30]” here?
A: The Kb was 6000 nM.

Q: And the Kb [4]?
A: Its Kb is 5 nM.

Q: “1-[5-Bromo-2-(2-Ethyl-Butoxy)-Benzyl]-1H-Pyrrolo[2,3-B]Pyridine-5-Carboxylic Acid [Example 31]” was tested. Which Kb [3] did it give?
A: The Kb was 520 nM.

Q: What does the source list for CCC(CC)COc1ccc(OC(F)(F)F)cc1Cn1ccc2cc(C(=O)O)cnc21 [Example 76, 1-[2-(2-Ethyl-Butoxy)-5-Trifluoromethoxy-Benzyl]-1H-Pyrrolo[2,3-B]Pyridine-5-Carboxylic Acid]?
A: Kb [3]: 1400 nM; Kb [4]: 20 nM
